Molecular target: T1, TrkA receptor (Homo sapiens, UniProt P04629)
T1 construct: host or cells: U2OS (PathHunter, 'TrkA p75' cells)
Test: DiscoverX PathHunter TrkA functional assay (NGF-stimulated U2OS cells)
Type: cell-based
Conditions: U2OS cells expressing TrkA-Prolink fusion and Shc1-EA; compound 1 hour, then EC80 NGF 3 hours; luminescence
Method: TrkA functional activity was measured using a DiscoverX PathHunter assay. In this assay, U2OS cells are express TrkA receptor as a fusion with the weakly complementing fragment of B-galactosidase, which DiscoverX calls “Prolink (PK)”; additionally, Shcl is fused with a larger fragment, which is called “Enzyme Acceptor (EA)”. Activation of the TrkA receptor, upon NGF addition, results in the kinase domain being phosphorylated, resulting in subsequent recruitment of Shcl-EA protein. That recruitment results in an active B-galactosidase enzyme that is detected by addition of a chemiluminescent substrate.
All reagents were purchased from DiscoverX, except for the receptor agonists (NGF, BDNF, NT3) which were purchased from Peprotech. Cells were expanded and frozen into cryovials (TrkA p75 @passage 13, 1.5×10^7 cells/vial; TrkC p75 @passage 11, 1.5×10^7 cells/vial in InVitrogen Recovery Cell Freezing media), and stored in the vapor phase of liquid nitrogen, and thawed immediately before use. Thawed cells were added to a 384-well plate (BD Falcon 384-well white/clear, TC surface 120 uL assay plates (353963), 20 uL of 0.375e6 cells/mL=>7500 cells/well), and allowed to incubate overnight. Compound (10 mM starting dose: 202.5 nL compound yielding 0.81% DMSO final in total assay volume and starting doses 81 uM) was added the following morning and allowed to incubate on cells for 1 hour. Then, 5 uL EC80 of agonist (NGF for TrkA; BDNF for TrkB; NT3 for TrkC) was added and allowed to incubate for 3 hours at room temperature. DiscoverX PathHunter detection reagent is added (12 uL to plate and components diluted in parts as per kit instructions) and the plate is further incubated for 1 hour in the dark. The plate is read via luminescence on the Perkin Elmer Envision.

T1 sequence (P04629 33-796): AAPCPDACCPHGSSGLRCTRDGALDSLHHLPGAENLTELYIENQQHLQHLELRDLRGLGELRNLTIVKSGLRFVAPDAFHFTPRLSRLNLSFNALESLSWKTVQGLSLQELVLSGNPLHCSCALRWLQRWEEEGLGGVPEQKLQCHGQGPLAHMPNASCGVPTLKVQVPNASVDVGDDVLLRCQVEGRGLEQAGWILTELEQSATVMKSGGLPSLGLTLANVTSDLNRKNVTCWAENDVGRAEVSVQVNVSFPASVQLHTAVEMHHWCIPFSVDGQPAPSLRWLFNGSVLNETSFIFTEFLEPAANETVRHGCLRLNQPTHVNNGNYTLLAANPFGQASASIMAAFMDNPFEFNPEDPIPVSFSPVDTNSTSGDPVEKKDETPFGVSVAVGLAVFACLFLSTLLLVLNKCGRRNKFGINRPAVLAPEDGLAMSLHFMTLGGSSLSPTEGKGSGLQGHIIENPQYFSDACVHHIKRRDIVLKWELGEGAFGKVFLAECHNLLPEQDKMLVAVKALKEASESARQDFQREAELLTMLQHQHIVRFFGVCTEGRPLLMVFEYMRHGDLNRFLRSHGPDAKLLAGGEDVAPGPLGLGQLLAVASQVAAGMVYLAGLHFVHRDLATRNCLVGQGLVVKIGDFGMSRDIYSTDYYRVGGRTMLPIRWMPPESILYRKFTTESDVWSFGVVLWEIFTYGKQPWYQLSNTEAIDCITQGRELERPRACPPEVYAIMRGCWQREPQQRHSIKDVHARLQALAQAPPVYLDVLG

| Structure (SMILES) | IC50 [nM] |
| --- | --- |
| O=C(Nc1cccc(-c2nnc3n2CCC3)c1)NC1c2ccccc2-c2ccccc21 [Compound 43, 1-[3-(6,7-dihydro-5H-pyrrolo[2,1-c] [1,2,4]triazol-3-yl)phenyl]-3-(9H-fluoren-9-yl)urea] | 130 |
| CCn1cnnc1-c1cccc(NC(=O)NC2c3ccccc3-c3ccccc32)c1 [Compound 44, 1-[3-(4-ethyl-4H-1,2,4-triazol-3-yl)phenyl]-3-(9H-fluoren-9-yl)urea] | 410 |
| Cc1nnc(-c2cccc(NC(=O)NC3c4ccccc4-c4ccccc43)c2)s1 [Compound 47, 1-(9H-fluoren-9-yl)-3-[3-(5-methyl-1,3,4-thiadiazol-2-yl)phenyl]urea] | 970 |
| O=C(Nc1cccnc1-c1ccncc1)NC1c2ccccc2-c2ccccc21 [Compound 50, 1-(2,4′-bipyridin-3-yl)-3-(9H-fluoren-9-yl)urea] | 880 |
| O=C(Nc1cccnc1-c1cccnc1)NC1c2ccccc2-c2ccccc21 [Compound 51, 1-(2,3′-bipyridin-3-yl)-3-(9H-fluoren-9-yl)urea] | 3000 |
| O=C(Nc1cccnc1-c1ccc(F)cc1)NC1c2ccccc2-c2ccccc21 [Compound 52, 1-(9H-fluoren-9-yl)-3-[2-(4-fluorophenyl)pyridin-3-yl]urea] | 100 |
| O=C(Nc1cccnc1-c1ccco1)NC1c2ccccc2-c2ccccc21 [Compound 54, 1-(9H-fluoren-9-yl)-3-(2-furan-2-ylpyridin-3-yl)urea] | 2800 |
| O=C(Nc1cccnc1-c1ccoc1)NC1c2ccccc2-c2ccccc21 [Compound 55, 1-(9H-fluoren-9-yl)-3-(2-furan-3-ylpyridin-3-yl)urea] | 390 |
| Cc1nc(-c2ccccc2)c(NC(=O)NC2c3ccccc3-c3ccccc32)n1C [Compound 58, 1-(1,2-dimethyl-4-phenyl-1H-imidazol-5-yl)-3-(9H-fluoren-9-yl)urea] | 190 |
| CN(C)C(=O)c1cccc(NC(=O)NC2c3ccccc3-c3ccccc32)c1 [Compound 61, 3-[(9H-fluoren-9-ylcarbamoyl)amino]-N,N-dimethylbenzamide] | 670 |

Other lines, results leading:

| IC50 [nM] | Structure (SMILES) |
| --- | --- |
| 1400 | O=C(Nc1cccc(-c2nc(C3CC3)n[nH]2)c1)NC1c2ccccc2-c2ccccc21 [Compound 45, 1-[3-(3-cyclopropyl-1H-1,2,4-triazol-5-yl)phenyl]-3-(9H-fluoren-9-yl)urea] |
| 660 | Cc1nnc(-c2cccc(NC(=O)NC3c4ccccc4-c4ccccc43)c2)o1 [Compound 46, 1-(9H-fluoren-9-yl)-3-[3-(5-methyl-1,3,4-oxadiazol-2-yl)phenyl]urea] |
| 360 | O=C(Nc1cccc(-c2nnc[nH]2)c1)NC1c2ccccc2-c2ccccc21 [Compound 48, 1-(9H-fluoren-9-yl)-3-[3-(4H-1,2,4-triazol-3-yl)phenyl]urea] |
| 2800 | O=C(Nc1cccc(-c2nnco2)c1)NC1c2ccccc2-c2ccccc21 [Compound 49, 1-(9H-fluoren-9-yl)-3-[3-(1,3,4-oxadiazol-2-yl)phenyl]urea] |
| 540 | O=C(Nc1cccnc1-c1ccnc(F)c1)NC1c2ccccc2-c2ccccc21 [Compound 53, 1-(9H-fluoren-9-yl)-3-(2′-fluoro-2,4′-bipyridin-3-yl)urea] |
| 410 | Cn1nc(-c2ccccc2)cc1NC(=O)NC1c2ccccc2-c2ccccc21 [Compound 56, 1-(9H-fluoren-9-yl)-3-(1-methyl-3-phenyl-1H-pyrazol-5-yl)urea] |
| 1300 | O=C(Nc1cccc(-n2cnnn2)c1)NC1c2ccccc2-c2ccccc21 [Compound 57, 1-(9H-fluoren-9-yl)-3-[3-(1H-tetrazol-1-yl)phenyl]urea] |
| 500 | Cc1nc(-c2ccccc2)c(NC(=O)NC2c3ccccc3-c3ccccc32)[nH]1 [Compound 59, 1-(9H-fluoren-9-yl)-3-(2-methyl-4-phenyl-1H-imidazol-5-yl)urea] |
| 560 | CCc1nnc(-c2cccc(NC(=O)NC3c4ccccc4-c4ccccc43)c2)o1 [Compound 60, 1-[3-(5-ethyl-1,3,4-oxadiazol-2-yl)phenyl]-3-(9H-fluoren-9-yl)urea] |

Reference: patent US9718782B2, “TrkA kinase inhibitors, compositions and methods thereof” (MERCK SHARP & DOHME CORP, priority 2013, dated 2017)
